Source: US20210284617A1, “Synthesis of (S)-2-Amino-4-Methyl-((R)-2-Methyloxirane-2-Yl)-Pentan-1-One and Pharmaceutically Acceptable Salts Thereof” (Amgen Inc., priority 2016, published 2021)
Values after ≈ are worked out from the molar mass of the structure shown.

Experiments:
[1] = Solubility of compound in organic solvents (crystallization development); assay type: physicochemical; conditions: for solubility in organic solvents (in words): isolation/crystallization context
Excerpt: Importantly, the intermediate synthesis of compound 3a allowed for the development of a crystallization process capable of purging upstream impurities and eliminating the requirement for column chromatography at step 1 or 2. […] Alternatively, a ternary system of three (3) solvents, such as acetonitrile/water/acetic acid will also work to isolate compound 3a. Further, the epoxidation step 3 in scheme 3 using the Mn-y76t catalyst of the present invention followed by crystallization with IPA/water worked well to not only to purge the diasteromer impurity but also to purge upstream process impurities.

[2] = Storage stability of the step 2 product, concentrated or in ACN/MTBE solution; assay type: physicochemical; conditions: for time stable in solution: 2-10 V of ACN or MTBE
Excerpt: Appropriate quenching of the Grignard process is important to ensure product quality and to eliminate racemization. A Grignard adduct impurity resulting from double-addition of the Grignard reagent was detected by LCMS at ˜2 LCAP during inverse addition of the reaction mixture to a mixture of MTBE (5 V) and 25% citric acid aqueous solution (10 V). An increase in the level of the double-addition by-product (up to 11 LCAP) was observed when quenching the reaction mixture into citric acid solution (in the absence of MTBE) with an associated decrease in product yield by >35%. The excess Grignard could react with product of step 2 that was hydrolyzed after work-up leading to the formation of the impurity. Of note, the impurities of double-addition, morpholine-adduct and dimers could not be detected by HPLC due to their relatively low response factors, but could be detected by LCMS and TLC (EtOAc/heptane 1:4, Nihydrin). Thus, it is important to carefully control the amount of Grignard reagents used and to carefully quench the reaction upon completion. Racemization of step 2 product was not observed during the course of optimization of the Grignard process or during the inverse quenching step. The concentrated product with BHT was stable at ambient temperature for one month; BHT in this sample originated from the solvent (250 ppm in stabilized THF) used in the Grignard process. The solution containing the product of step 2 in 2-10 V of ACN or MTBE was stable at room temperature or 5° C. for at least 4 days or 18 hours at 35° C., which was required to optimize the solvent switch to ACN for the step 3 epoxidation.

Row | SMILES | solubility in organic solvents (in words) [1] | time stable in solution ([2]; 35° C.) [h] | time stable in solution ([2]; room temperature or 5° C.) | time stable as concentrated product ([2]; concentrated product with BHT, ambient temperature) | solubility ([1]; organic solvent or mixture, n-hexane at −20° C.) [mg/mL]
1 | CC(C)C[C@@H](NC(=O)OC(C)(C)C)C(=O)[C@@]1(C)CO1 [compound 3a, tert-butyl ((R)-4-methyl-1-((R)-2-methyloxiran-2-yl)-1-oxopentan-2-yl)carbamate] | improved solubility profile |  |  |  | 
2 | C=C(C)C(=O)[C@@H](CC(C)C)NC(=O)OC(C)(C)C [compound 2a, (R)-tert-butyl (2,6-dimethyl-3-oxohept-1-en-4-yl)carbamate] |  | 18 | at least 4 days | one month | 
3 | CC(C)C[C@H](NC(=O)OC(C)(C)C)C(=O)[C@@]1(C)CO1 [compound 4a, tert-butyl ((S)-4-methyl-1-((R)-2-methyloxiran-2-yl)-1-oxopentan-2-yl)carbamate] | high solubility in most all organic solvents |  |  |  | ~34 (≈ 125 mM)
